Read-outs that look alike come from different tables or passages of the source.
How the values were obtained:
[1] = test system: ET-1-induced contraction of rat intact intrapulmonary arterial rings; test: Ex-vivo vascular function assay: relaxation of ET-1-contracted intact rat intrapulmonary arterial rings; type: cell-based; settings: 8 nM ET-1, 10 nM ambrisentan, 30 nM tadalafil, alone or in combination, mean±SEM
Experimental: The selective type-A endothelin receptor antagonist, ambrisentan ([…]®), and the phosphodiesterase type 5 inhibitor, tadalafil ([…]®), are currently used to treat pulmonary arterial hypertension. Isolated rat intact intrapulmonary arterial rings contracted with 8 nM endothelin-1 (ET-1) were relaxed by 10 nM ambrisentan (from Gilead Sciences, Inc.) and 30 nM tadalafil (from Sequoia Research Products Ltd. Pangbourne, UK) by 30±13% (mean±SEM, n=3) and 12±5% (n=3), respectively, whereas both drugs in combination relaxed the intact intrapulmonary arterial rings by […] (FIG. 1, n=3, P<0.01 vs. mono-administration of ambrisentan or tadalafil). Intrapulmonary arteries (200-500 μm) and aortas were isolated from Sprague Dawley rats (300-320 g) and cut into 1-2 mm rings. Rings were mounted in a myograph and constricted with a submaximal concentration (8 nM) of ET-1. Ambrisentan, Bosentan, Macitentan and Tadalafil alone and in combination were evaluated in ET-constricted rings. Isolated rat intact intrapulmonary arterial rings contracted with 8 nM endothelin-1 (ET-1) were relaxed by 10 nM ambrisentan and 30 nM tadalafil by 29±1% (mean±SEM, n=4) and 22±2% (n=4), respectively, whereas both drugs in combination relaxed the intact intrapulmonary arterial rings by 85±3% (FIG. 2, n=4, P<0.01 vs. mono-administration of ambrisentan or tadalafil).

[2] = test system: ET-1-induced contraction of rat intact thoracic aortic rings; test: Ex-vivo vascular function assay: relaxation of ET-1-contracted intact rat thoracic aortic rings; type: cell-based; settings: for relaxation of intact thoracic aortic rings in the presence of ET-1: Example 1, FIG. 1, 8 nM ET-1, 10 nM ambrisentan, 30 nM tadalafil, alone or in combination, n=3; for IC50: Rattus norvegicus, read-out: IC50 to relax ET-1 constricted aortic rings
Experimental: The combination of both 10 nM ambrisentan and 30 nM tadalafil relaxed the ET-1-induced contraction of the intact thoracic aortic rings by 81±7% (FIG. 1, n=3; P<0.01 vs. mono-administration of ambrisentan or tadalafil). […] Intrapulmonary arteries (200-500 μm) and aortas were isolated from Sprague Dawley rats (300-320 g) and cut into 1-2 mm rings. Rings were mounted in a myograph and constricted with a submaximal concentration (8 nM) of ET-1. Ambrisentan, Bosentan, Macitentan and Tadalafil alone and in combination were evaluated in ET-constricted rings.

[3] = test system: hypoxia-induced mean pulmonary arterial pressure (mPAP) in male SD rats; test: Hypoxia-induced pulmonary arterial hypertension (PAH) animal model; type: in vivo; settings: 3 wks hypoxia, rat
Experimental: Male SD Rats (225-250 g) were housed in chambers under normoxic (sea level) or hypoxic (10% oxygen) conditions for 3 weeks. Rats were dosed with vehicle (0.5% hydroxypropyl methylcellulose (HPMC), 0.2% Tween 80, and 0.9% benzyl alcohol in water), AMB or TAD (quaque die) beginning the day they were placed in chambers. Plasma was collected when animals were terminated. [table]

[4] = test system: ET-1-induced contraction of endothelium-denuded aortic rings; test: ET-1-induced contraction of endothelium-denuded aortic rings; type: cell-based, rat; settings: 10 nM ambrisentan, n=4
Experimental: (§1) Intrapulmonary arteries (200-500 μm) and aortas were isolated from Sprague Dawley rats (300-320 g) and cut into 1-2 mm rings. Rings were mounted in a myograph and constricted with a submaximal concentration (8 nM) of ET-1. Ambrisentan, Bosentan, Macitentan and Tadalafil alone and in combination were evaluated in ET-constricted rings.

[5] = test system: ET-1-induced contraction of endothelium-denuded pulmonary arterial rings; test: ET-1-induced contraction of endothelium-denuded pulmonary arterial rings; type: cell-based, rat; settings: FIG. 5, 10 nM ambrisentan, 30 nM tadalafil, n=4
Experimental: as §1

[6] = Free plasma concentration in the rat PAH study; type: in vivo; settings: Sprague-Dawley, read-out: free or unbounded plasma concentration
Experimental: Rats were dosed with vehicle (0.5% hydroxypropyl methylcellulose (HPMC), 0.2% Tween 80, and 0.9% benzyl alcohol in water), AMB or TAD (quaque die) beginning the day they were placed in chambers. Plasma was collected when animals were terminated.
The free or unbounded plasma concentration for 10 mpk AMB dosing was about 104 nM in both cases. The free or unbounded plasma concentrations of TAD was about 24 nM when administered separately, or about 26 nM when administered with AMB, whether 1 mpk or 10 mpk.

ETA receptor = biological target: T1, ETA receptor (Homo sapiens, UniProt P25101); settings: read-out: affinity for the ETA receptor; cited from earlier work
T1 sequence (P25101 21-427): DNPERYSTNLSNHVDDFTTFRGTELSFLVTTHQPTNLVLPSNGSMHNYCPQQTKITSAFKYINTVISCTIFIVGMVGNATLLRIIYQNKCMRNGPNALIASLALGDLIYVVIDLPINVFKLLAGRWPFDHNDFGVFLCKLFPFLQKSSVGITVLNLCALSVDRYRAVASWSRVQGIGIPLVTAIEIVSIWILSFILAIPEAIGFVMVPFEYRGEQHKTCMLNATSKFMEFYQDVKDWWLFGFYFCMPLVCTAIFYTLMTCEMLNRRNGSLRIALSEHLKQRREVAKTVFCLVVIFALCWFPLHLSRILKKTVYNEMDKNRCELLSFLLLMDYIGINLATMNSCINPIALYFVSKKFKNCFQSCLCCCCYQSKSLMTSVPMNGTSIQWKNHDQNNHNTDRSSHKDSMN

[7] = Example 2, FIG. 2, 100 nM bosentan, 30 nM macitentan

| Structure (SMILES) | relaxation of intact intrapulmonary arterial rings contracted with ET-1 [1, 7] | relaxation of intact thoracic aortic rings in the presence of ET-1 [2] | IC50 ([2]; in the presence of 10 nM ambrisentan) | IC50 ([2]; tadalafil alone) | inhibition of PAP (mPAP±SEM) ([3]; 10 mpk TAD once daily) | reduction of contraction induced by ET-1 [4] | relaxation of intact intrapulmonary arterial rings contracted with ET-1 ([1]; Example 1, FIG. 1, n=3) | reduction of contraction induced by ET-1 [5] | concentration at 3 weeks ([6]; 10 mpk, TAD (10 mpk), administered separately) | concentration at 3 weeks ([6]; TAD (10 mpk), administered with AMB, 1 mpk or 10 mpk) | inhibition of PAP (mPAP±SEM) ([3]; 1 mpk AMB once daily) | inhibition of PAP (mPAP±SEM) ([3]; 10 mpk AMB once daily) | Ki (ETA receptor) | concentration at 3 weeks ([6]; 1 mpk, AMB 1 mpk, administered separately) | concentration at 3 weeks ([6]; AMB 1 mpk, administered along with TAD) | concentration at 3 weeks ([6]; AMB 10 mpk, separately or with TAD (both cases)) |
| --- | --- | --- | --- | --- | --- | --- | --- | --- | --- | --- | --- | --- | --- | --- | --- | --- |
| CCCNS(=O)(=O)Nc1ncnc(OCCOc2ncc(Br)cn2)c1-c1ccc(Br)cc1 [macitentan] | 31±2% |  |  |  |  |  |  |  |  |  |  |  |  |  |  |  |
| COc1ccccc1Oc1c(NS(=O)(=O)c2ccc(C(C)(C)C)cc2)nc(-c2ncccn2)nc1OCCO [bosentan] | 25±1% |  |  |  |  |  |  |  |  |  |  |  |  |  |  |  |
| CN1CC(=O)N2[C@H](c3ccc4c(c3)OCO4)c3[nH]c4ccccc4c3C[C@@H]2C1=O [tadalafil, (6R-trans)-6-(1,3-benzodioxol-5-yl)-2,3,6,7,12,12a-hexahydro-2-methyl-pyrazino [1′, 2′:1,6] pyrido[3,4-b]indole-1,4-dione] | 22±2% | 16±4% | 16 nM | 79 nM | 23.2±1.3% | failed to inhibit contraction | 12±5% | failed to inhibit contraction | ~24 nM | ~26 nM |  |  |  |  |  |  |
| COC(c1ccccc1)(c1ccccc1)[C@H](Oc1nc(C)cc(C)n1)C(=O)O [ambrisentan, (2S)-2-[(4,6-dimethylpyrimidin-2-yl)oxy]-3-methoxy-3,3-diphenylpropanoic acid] | 29±1% | 32±3% |  |  |  | 26±7% | 30±13% | 23±4% |  |  | 28.4±1.1% | 42.1±2.4% | ~0.012 nM | ~17 nM | ~13 nM | ~104 nM |

From patent US9549926B2, “Compositions and methods of treating pulmonary hypertension” (Gilead Sciences, Inc., priority 2010, dated 2017)
